Test results taken from patent US11293045B2, “Method for electrochemical detection of mycobacteria” (UNIVERSITÉ DE BOURGOGNE, priority 2017, dated 2022).

Test: Linear voltammetry of substrate and product solutions on screen-printed carbon sensors
Format: physicochemical
Conditions: linear voltammetry v=50 mV·s^−1; 5×10^−4 M in PBS (pH 7.5)—0.2% DMSO; vs. Ag/AgCl
Procedure: FIG. 2 represents the linear voltammograms (v=50 mV·s^−1) of a solution of substrate (p-AP-OG; S) and of product (p-AP-G; dashed curve; P) at 5×10^−4 M in PBS (pH 7.5)—0.2% DMSO.
The electrochemical measurements were carried out by linear voltammetry (v=50 mV·s^−1) with a 910 PSTAT mini potentiostat (Metrohm, France) powered through the USB connection of the computer and controlled by the PSTAT software (version 1.0). To do this, drops of solution of 30-50 μl were deposited on the surface of single-use screen-printed carbon sensors supplied by Dropsens (DRP-110) and connected to the potentiostat via the connector (DRP-DSC). The amperometric detection of the product generated during the reaction catalyzed by Ag85 was always carried out after a step of filtration of the reaction mixture with a filtration device (Microcon 10 kDa, Millipore). All the potentials are measured relative to the Ag/AgCl reference electrode.

oxidation peak potential | SMILES
~+0.4 V | Nc1ccc(O[C@@H]2O[C@H](CO)[C@@H](O)[C@H](O)[C@H]2O)cc1 [p-AP-G, p-aminophenyl-β-D-glucopyranoside]
~+0.2 V | CCCCCCCC(=O)OC[C@H]1O[C@@H](Oc2ccc(N)cc2)[C@H](O)[C@@H](O)[C@@H]1O [p-AP-OG, p-aminophenyl-6-O-octanoyl-β-D-glucopyranoside]
